Experimental data reported in US5095011A, “Lyophilized cefepime dihydrochloride for parenteral use” (priority 1990, dated 1992).
Where a name gives a salt, the structure may show the parent alone. One block for each compound: values may come before it.

What was measured:
[1] = Stability of lyophilized amorphous BMY-28142 salts (dry, sealed vials); format: physicochemical; conditions: for expected shelf life: extrapolated from stability tests; for remaining at 168 h: 1 week; for remaining at 336 h: 2 weeks; for remaining at 672 h: 4 weeks; for remaining at 1008 h: 6 weeks; for remaining at 2184 h: 13 weeks; for remaining at 6888 h: 41 weeks
Protocol: […] of BMY-28142 Zi was dissolved qs to 33 ml with 1.9 ml of 1N-HCl and water for injection (pH=2.0).
One ml portion (approximately 65 mg/ml) of the solution were placed into 10cc flint vials which were loosely stoppered with split lyphlization stoppers, frozen to -40° C. and lyphilized at a shelf temperature of 0° C. for 24 hours, then at 24° C. for 24 hours and at 32.2° C. for four hours. The vials were then sealed with aluminum closures and tested for stability at 56°, 45° and 37° C.

[2] = format: physicochemical; conditions: water for injection
Protocol: 375 mg L(+)-Arginine for injection is reconstituted with 4.45 ml of sterile water for injection. The solution is taken up in a syringe and is added to a vial containing lyophilized BMY-28142-2HCl having an activity of 500 mg activity per vial. This solution produces a reconstituted solution suitable for injection which has an activity of about 100 mg BMY-28142 per milliliter.
Control of the amount of water used for dilution permitted the attainment of high concentrations up to 400 mg BMY-28142 per ml.

various organisms = conditions: U.S. Pat. No. 4,406,899; amorphous zwitterionic form; cited from earlier work
[3] = dry lyophilized solid, 45° C., second lot, separately prepared

- expected shelf life ([1]; 4° C.): at least 24 months
- remaining at 168 h ([1]; dry lyophilized solid, 45° C.): 99.8%
- remaining at 168 h [1, 3]: 100%
- remaining at 336 h ([1]; dry lyophilized solid, 45° C.): 97.2%
- remaining at 336 h ([1]; dry lyophilized solid, 56° C., second lot, separately prepared): 91.8%
- remaining at 672 h ([1]; dry lyophilized solid, 37° C.): 98.6%
- remaining at 672 h [1, 3]: 92.5%
- remaining at 4320 h ([1]; dry lyophilized solid, 6 months, 25° C., second lot, separately prepared): 100%
- remaining at 1008 h ([1]; dry lyophilized solid, 37° C., second lot, separately prepared): 97.2%
- remaining at 1344 h ([1]; dry lyophilized solid, 8 weeks, 56° C.): 87%
- remaining at 2184 h ([1]; dry lyophilized solid, 37° C.): 95.5%
- remaining at 2184 h ([1]; dry lyophilized solid, 45° C.): 91.6%
- remaining at 4368 h ([1]; dry lyophilized solid, 26 weeks, 45° C.): 87.7%
- remaining at 6888 h ([1]; dry lyophilized solid, 25° C.): 98.1%
- remaining at 6888 h ([1]; dry lyophilized solid, 37° C.): 91.7%
- remaining at 8736 h ([1]; dry lyophilized solid, 52 weeks, 25° C., second lot, separately prepared): 100%
- expected shelf life ([1]; room temperature): at least 12 months
Structure (SMILES): CO/N=C(\C(=O)NC1C(=O)N2C(C(=O)[O-])=C(C[N+]3(C)CCCC3)CSC12)c1csc(N)n1 (stereo not drawn) [Di-HCl, 7-[α-(2-aminothiazol-4-yl)-α-(Z)-methoxyiminoacetamido]-3-[(1-methyl-1-pyrrolidinium)methyl]-3-cephem-4-carboxylate]
- stability of lyophile compared with other lyophilized amorphous salts [1]: unexpectedly more stable than the lyophilized, amorphous sesqui-H3 PO4, mono-H2 SO4 and mono-HCl salts

- remaining at 168 h ([1]; dry lyophilized solid, 56° C.): 75%
- remaining at 1008 h ([1]; dry lyophilized solid, 37° C.): 79%
Structure (SMILES): CO/N=C(\C(=O)NC1C(=O)N2C(C(=O)[O-])=C(C[N+]3(C)CCCC3)CSC12)c1csc(N)n1 (stereo not shown) [Sesqui-PO4]

Structure (SMILES): CO/N=C(\C(=O)N[C@@H]1C(=O)N2C(C(=O)[O-])=C(C[N+]3(C)CCCC3)CS[C@H]12)c1csc(N)n1 [BMY-28142, 7-[α-(2-aminothiazol-4-yl)-α-(Z)-methoxyiminocetamido]-3-[(1-methyl-1-pyrrolidinium)methyl]-3-cephem-4-carboxylate]
- concentration attained on reconstitution [2]: up to 400 mg per ml
- antibacterial spectrum of activity (various organisms): broader spectrum activity than ceftazidime and cefotaxime
